# Test results reported in patent publication US5861480A, “Antimicrobial proteins from aralia and impatiens” (Zeneca Limited, priority 1994, dated 1999).
# Assays:
# Type in all cases: cell-based
# [1] = tested on: A longipes (Alternaria lonaives CBS62083); experiment: Antifungal activity assay (microspectrophotometry), A longipes; details: 48 h
# [2] = tested on: Botrytis cinerea MUCL 30158; experiment: Antifungal activity assay (microspectrophotometry), B cinerea; details: 48 h
# [3] = tested on: B maydis (Bipolaris mavdis HM-10); experiment: Antifungal activity assay (microspectrophotometry), B maydis; details: Medium A (1/2 PDB), 48 h
# [4] = tested on: Cercospora beticola strain K897; experiment: Antifungal activity assay (microspectrophotometry), C beticola; details: Medium A (1/2 PDB), 48 h
# [5] = tested on: C graminicola (Colletotrichum Qraminicola CG-17); experiment: Antifungal activity assay (microspectrophotometry), C graminicola; details: Medium A (1/2 PDB), 48 h
# [6] = tested on: C sphaerospermum (Cladosnorium sphaerospermum KO791); experiment: Antifungal activity assay (microspectrophotometry), C sphaerospermum; details: 48 h
# [7] = tested on: Fusarium culmorum IMI 180420; experiment: Antifungal activity assay (microspectrophotometry), F culmorum; details: 48 h
# [8] = tested on: F graminearum (Fusarium craminearum FR-12); details: Medium A (1/2 PDB), 48 h
# [9] = tested on: Fusarium moniliforme FM-9; experiment: Antifungal activity assay (microspectrophotometry), F moniliforme; details: Medium A (1/2 PDB), 48 h
# [10] = tested on: P digitatum (Penicillium dipitatum (K0879)); experiment: Antifungal activity assay (microspectrophotometry), P digitatum; details: 48 h
# Stenocarpella maydis = experiment: Antifungal activity assay (microspectrophotometry), S maydis; details: Medium A (1/2 PDB), 48 h
# [11] = tested on: Sphacelotheca reiliana HS; experiment: Antifungal activity assay (microspectrophotometry), S reiliana; details: Medium A (1/2 PDB), 48 h
# [12] = tested on: Septoria tritici (K1097D); experiment: Antifungal activity assay (microspectrophotometry), S tritici; details: 48 h
# Trichoderma viride K1127 = experiment: Antifungal activity assay (microspectrophotometry), T viride; details: 48 h
# [13] = tested on: Verticillium albo-atrum K0937; experiment: Antifungal activity assay (microspectrophotometry), V albo-atrum; details: 48 h
# [14] = tested on: Verticillium dahliae MUCL 19210; experiment: Antifungal activity assay (microspectrophotometry), V dahliae; details: Medium A (1/2 PDB), 48 h
# [15] = tested on: Bacillus megaterium ATCC 13632; experiment: Antibacterial activity assay (microspectrophotometry), B megaterium; details: bacterial suspension in soft nutrient agarose, 24 hours at 28° C.
# [16] = tested on: Escherichia coli strain HB101; experiment: Antibacterial activity assay (microspectrophotometry), E coli; details: bacterial suspension in soft nutrient agarose, 24 hours at 28° C.
# [17] = tested on: Saccharomyces cerevisiae JRY188; experiment: Anti-yeast activity assay, S cerevisiae
# Candida albicans KA-1 = experiment: Anti-yeast activity assay, C albicans
# plant pathogenic fungi = experiment: Antifungal potency on different plant pathogenic fungi (summary over the panel); details: high salt medium (medium B)
# [18] = Medium B (1/2 PDB + 1 mM CaCl2 and 50 mM KCl)
Substance,IC50 (growth inhibition) A longipes ([1]; Medium A (1/2 PDB)) [µg/mL],"IC50 (growth inhibition) A longipes [1, 18] [µg/mL]",IC50 (growth inhibition) B cinerea ([2]; Medium A (1/2 PDB)) [µg/mL],"IC50 (growth inhibition) B cinerea [2, 18] [µg/mL]",IC50 (growth inhibition) C beticola [4] [µg/mL],IC50 (growth inhibition) C sphaerospermum ([6]; Medium A (1/2 PDB)) [µg/mL],"IC50 (growth inhibition) C sphaerospermum [6, 18] [µg/mL]",IC50 (growth inhibition) F culmorum ([7]; Medium A (1/2 PDB)) [µg/mL],"IC50 (growth inhibition) F culmorum [7, 18] [µg/mL]",IC50 (growth inhibition) P digitatum ([10]; Medium A (1/2 PDB)) [µg/mL],"IC50 (growth inhibition) P digitatum [10, 18] [µg/mL]",IC50 (growth inhibition) S tritici ([12]; Medium A (1/2 PDB)) [µg/mL],"IC50 (growth inhibition) S tritici [12, 18] [µg/mL]",IC50 (growth inhibition) T viride (Trichoderma viride K1127; Medium A (1/2 PDB)) [µg/mL],IC50 (growth inhibition) T viride (Trichoderma viride K1127; [18]) [µg/mL],IC50 (growth inhibition) V albo-atrum ([13]; Medium A (1/2 PDB)) [µg/mL],"IC50 (growth inhibition) V albo-atrum [13, 18] [µg/mL]",further results
"Ib-AMP1: Impatiens balsamina antimicrobial protein 1, purified from I balsamina seeds; amino acid sequence SEQ ID NO 10 (QWGRRCCGWGPGRRYCVRWC)",3,50,12,> 200,1.5,1.5,50,1.5,50,3,200,1,50,6,> 200,3,> 200,IC50 (growth inhibition) B maydis [3]: 7 µg/mL; IC50 (growth inhibition) C graminicola [5]: 2 µg/mL; IC50 (growth inhibition) F graminearum [8]: 3 µg/mL; IC50 (growth inhibition) F moniliforme [9]: 20 µg/mL; IC50 (growth inhibition) S maydis (Stenocarpella maydis): 5 µg/mL; IC50 (growth inhibition) S reiliana [11]: 4 µg/mL; IC50 (growth inhibition) V dahliae [14]: 1 µg/mL; IC50 (growth inhibition) B megaterium [15]: 10 µg/mL; IC50 (growth inhibition) E coli [16]: > 800 µg/mL; IC50 (growth inhibition) S cerevisiae [17]: 20 µg/mL; IC50 (growth inhibition) C albicans (Candida albicans KA-1): 10 µg/mL; effect on the growth of C. albicans (in words) (Candida albicans KA-1): strongly inhibitied
"Ib-AMP3: Impatiens balsamina antimicrobial protein 3, purified from I balsamina seeds; amino acid sequence SEQ ID NO 12 (QYRHRCCAWGPGRKYCKRWC)",6,> 200,6,> 200,,3,100,6,100,3,100,,,12,> 200,6,> 200,
"Ib-AMP2: Impatiens balsamina antimicrobial protein 2, purified from I balsamina seeds; amino acid sequence SEQ ID NO 11 (QYGRRCCNWGPGRRYCKRWC)",12,> 200,25,> 200,3,6,> 200,6,> 200,6,> 200,,,12,> 200,12,> 200,
"Ib-AMP4: Impatiens balsamina antimicrobial protein 4, purified from I balsamina seeds; amino acid sequence SEQ ID NO 13 (QWGRRCCGWGPGRRYCRRWC)",3,12,6,200,,1,6,1,6,3,25,1,12,6,150,6,50,antifungal activity in high salt medium (in words) (plant pathogenic fungi): fairly strong activity
